The values below come from patent US12098145B2 (Libra Therapeutics, Inc., priority 2022, dated 2024).

The pEC50 is −log10 of the EC50, conventionally taken in molar units.

The target in this assay is T1, TRPML1 (Homo sapiens, UniProt Q9GZU1).
T1 construct: expressed in transfected cells; host or cells: HEK T-REx cells stably expressing GCaMP6f and TRPML1
The assay is described as follows: Cellular TRPML1 assay (FLIPR, GCaMP6f calcium read-out). It counts as cell-based. The note with it: for EC50: HEKT-REx/GCaMP6f/TRPML1 cells, FLIPR TETRA, kinetic response over 300 seconds, read-out: TRPML1 FLIPR pEC50 (converted). The procedure, abridged:
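Read-out is GCaMP6f fluorescence over 300 s after compound addition in Ca2+-free Tyrode's buffer, final DMSO 0.5%, on FLIPR Tetra. Cells are HEK T-REx stably co-expressing the indicator and TRPML1, plated 24 h earlier in Optimem + 0.5% FBS and pre-incubated ~10 min at room temperature.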

pEC50: −log10 of the molar value. Like-named read-outs stand apart in the source and are kept apart here.

T1 sequence (Q9GZU1 whole entry): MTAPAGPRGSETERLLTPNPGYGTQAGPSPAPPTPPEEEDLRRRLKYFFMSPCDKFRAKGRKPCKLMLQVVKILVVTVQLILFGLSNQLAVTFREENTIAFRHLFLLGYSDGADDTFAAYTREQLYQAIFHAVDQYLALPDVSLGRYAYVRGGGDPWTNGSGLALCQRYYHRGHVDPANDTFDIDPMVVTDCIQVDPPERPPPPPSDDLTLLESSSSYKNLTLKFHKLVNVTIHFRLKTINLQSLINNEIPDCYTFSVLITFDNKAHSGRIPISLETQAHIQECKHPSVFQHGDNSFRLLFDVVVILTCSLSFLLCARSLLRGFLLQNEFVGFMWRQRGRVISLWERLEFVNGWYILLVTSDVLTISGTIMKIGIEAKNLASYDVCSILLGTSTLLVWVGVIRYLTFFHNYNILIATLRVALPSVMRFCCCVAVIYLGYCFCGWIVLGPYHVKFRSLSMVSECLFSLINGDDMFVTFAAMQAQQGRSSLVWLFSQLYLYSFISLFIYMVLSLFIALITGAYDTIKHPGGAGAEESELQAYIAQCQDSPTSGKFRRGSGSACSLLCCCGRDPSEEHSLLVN

Take `CCN(c1ccc(NC(=O)c2nc(N3CCCC3)oc2CC(F)(F)F)cc1F)C1CCCC1(F)F` (centres unmarked) [Example 87, N-(4-((2,2-difluorocyclopentyl)(ethyl)amino)-3-fluorophenyl)-2-(pyrrolidin-1-yl)-5-(2,2,2-trifluoroethyl)oxazole-4-carboxamide]: the EC50 was 10 to 100 µM. Consider `CCC1(CC)CN(c2nc(C(=O)Nc3cc(F)c(O[C@@H]4C[C@@H]5C[C@@H]5C4)c(F)c3)c(CN(C)C)o2)C1` [Example 301, N-(4-(cis-bicyclo[3.1.0]hexan-3-yloxy)-3,5-difluorophenyl)-2-(3,3-diethylazetidin-1-yl)-5-((dimethylamino)methyl)oxazole-4-carboxamide], for which the EC50 was 1 to 10 µM. Regarding `CCC1(CC)CN(c2nc(C(=O)Nc3cc(C)c(NC4CC5CC(C5)C4)c(F)c3)c(CC(F)(F)F)o2)C1` (centres unmarked) [Example 192, N-(4-(bicyclo[3.1.1]heptan-3-ylamino)-3-fluoro-5-methylphenyl)-2-(3,3-diethylazetidin-1-yl)-5-(2,2,2-trifluoroethyl)oxazole-4-carboxamide], the EC50 was 1 to 10 µM. As for `CCc1oc(N2CC(C)(OC)C2)nc1C(=O)Nc1cc(F)c(N2CC3CC(C3)C2)c(F)c1` [Example 258, N-(4-(3-azabicyclo[3.1.1]heptan-3-yl)-3,5-difluorophenyl)-5-ethyl-2-(3-methoxy-3-methylazetidin-1-yl)oxazole-4-carboxamide], the EC50 is 1 to 10 µM. As for `O=C(Nc1cc(F)c(N2C3CCCC2CC3)c(F)c1)c1nc(N2CCCOCC2)oc1CC(F)(F)F` [Example 199, N-(4-(8-azabicyclo[3.2.1]octan-8-yl)-3,5-difluorophenyl)-2-(1,4-oxazepan-4-yl)-5-(2,2,2-trifluoroethyl)oxazole-4-carboxamide], the EC50 is 1 to 10 µM. Turning to `O=C(Nc1ccc(N2CCCCC2)c(F)c1)c1nc(N2CCC3(CC3)C2)oc1CC(F)(F)F` [Example 27, 2-{5-azaspiro[2.4]heptan-5-yl}-N-[3-fluoro-4-(piperidin-1-yl)phenyl]-5-(2,2,2-trifluoroethyl)-1,3-oxazole-4-carboxamide], the EC50 is 1 to 10 µM. On to `CCC1(OC)CN(c2nc(C(=O)Nc3cc(F)c(O[C@@H]4C[C@@H]5C[C@@H]5C4)c(F)c3)c(CC(F)(F)F)o2)C1` [Example 167, N-(4-(cis-bicyclo[3.1.0]hexan-3-yloxy)-3,5-difluorophenyl)-2-(3-ethyl-3-methoxyazetidin-1-yl)-5-(2,2,2-trifluoroethyl)oxazole-4-carboxamide], for which the EC50 was 0.01 to 1 µM. Turning to `O=C(Nc1cc(F)c(N2C3CCCC2CC3)c(F)c1)c1nc(N2CCCC2)oc1CC(F)(F)F` [Example 210, N-(4-(8-azabicyclo[3.2.1]octan-8-yl)-3,5-difluorophenyl)-2-(pyrrolidin-1-yl)-5-(2,2,2-trifluoroethyl)oxazole-4-carboxamide], the pEC50 is 6.00 to 8.00.

On to `CCC1(OC)CN(c2nc(C(=O)Nc3cc(F)c4c(c3)CCN4C3CC4CC4C3)c(CC(F)(F)F)o2)C1` (centres unmarked) [Example 313, N-(1-(bicyclo[3.1.0]hexan-3-yl)-7-fluoroindolin-5-yl)-2-(3-ethyl-3-methoxyazetidin-1-yl)-5-(2,2,2-trifluoroethyl)oxazole-4-carboxamide], for which the EC50 is 1 to 10 µM. Take `O=C(Nc1cc(F)c(OC2CC3C[C@@H]3C2)c(F)c1)c1nc(N2CC3CC2C3)oc1CC(F)(F)F` (stereo partly drawn) [Example 175, 2-(2-azabicyclo[2.1.1]hexan-2-yl)-N-(4-(cis-bicyclo[3.1.0]hexan-3-yloxy)-3,5-difluorophenyl)-5-(2,2,2-trifluoroethyl)oxazole-4-carboxamide]: the EC50 is 0.01 to 1 µM.

As for `O=C(Nc1ccc(OC2CCCC2)c(F)c1)c1nc(N2C[C@H]3CCO[C@H]3C2)oc1CC(F)(F)F` [Example 61, N-(4-(cyclopentyloxy)-3-fluorophenyl)-2-((3aR,6aR)-hexahydro-5H-furo[2,3-c]pyrrol-5-yl)-5-(2,2,2-trifluoroethyl)oxazole-4-carboxamide], the EC50 was 1 to 10 µM. Consider `O=C(Nc1ccc(OC2CCCC2)c(O)c1)c1nc(N2CCCC2)oc1CC(F)(F)F` [Example 85, N-(4-(cyclopentyloxy)-3-hydroxyphenyl)-2-(pyrrolidin-1-yl)-5-(2,2,2-trifluoroethyl)oxazole-4-carboxamide], for which the EC50 is 1 to 10 µM. In the case of `O=C(Nc1ccc(OC2CCCC2(F)F)c(F)c1)c1nc(N2CC3CCOC3C2)oc1CC(F)(F)F` (centres unmarked) [Example 12, N-(4-((2,2-difluorocyclopentyl)oxy)-3-fluorophenyl)-2-(hexahydro-5H-furo[2,3-c]pyrrol-5-yl)-5-(2,2,2-trifluoroethyl)oxazole-4-carboxamide], the EC50 was 1 to 10 µM. The same measure, in the same setting: for `Cc1oc(N2CCCC2CO)nc1C(=O)Nc1ccc(N2CCCCC2)c(F)c1` (centres unmarked) [Example 93, N-(3-fluoro-4-(piperidin-1-yl)phenyl)-2-(2-(hydroxymethyl)pyrrolidin-1-yl)-5-methyloxazole-4-carboxamide] the value was 10 to 100 µM; for `CN(c1c(F)cc(NC(=O)c2nc(N3CCCC3)oc2CC(F)(F)F)cc1F)C1CCCC1(F)F` (centres unmarked) [Example 81, N-{4-[(2,2-difluorocyclopentyl)(methyl)amino]-3,5-difluorophenyl}-2-(pyrrolidin-1-yl)-5-(2,2,2-trifluoroethyl)oxazole-4-carboxamide], 1 to 10 µM; for `CC1CCCN1c1nc(C(=O)Nc2ccc(N3CCCCC3)c(F)c2)c(CC(F)(F)F)o1` (centres unmarked) [Example 29, N-(3-fluoro-4-(piperidin-1-yl)phenyl)-2-(2-methylpyrrolidin-1-yl)-5-(2,2,2-trifluoroethyl)oxazole-4-carboxamide], 1 to 10 µM.

On to `Cc1oc(N2CCN(C3CC3)CC2)nc1C(=O)Nc1ccc(N2CCCCC2)c(F)c1` [Example 94, 2-(4-cyclopropylpiperazin-1-yl)-N-(3-fluoro-4-(piperidin-1-yl)phenyl)-5-methyloxazole-4-carboxamide], for which the EC50 was 10 to 100 µM.

`CCC1(CC)CN(c2nc(C(=O)Nc3cc(C)c(O[C@@H]4C[C@@H]5C[C@@H]5C4)c(F)c3)c(CN3CCC3)o2)C1` [Example 297, 5-(azetidin-1-ylmethyl)-N-(4-(cis-bicyclo[3.1.0]hexan-3-yloxy)-3-fluoro-5-methylphenyl)-2-(3,3-diethylazetidin-1-yl)oxazole-4-carboxamide]: the EC50 is 1 to 10 µM. For the compound `Cc1cc(NC(=O)c2nc(N3CCCC3)oc2CC(F)(F)F)cc(F)c1N(C)C1CC2CC(C2)C1` (centres unmarked) [Example 217, N-(4-(bicyclo[3.1.1]heptan-3-yl(methyl)amino)-3-fluoro-5-methylphenyl)-2-(pyrrolidin-1-yl)-5-(2,2,2-trifluoroethyl)oxazole-4-carboxamide], the EC50 was 10 to 100 µM. Still for that read-out and setting: for `CCC1(CC)CN(c2nc(C(=O)Nc3cc(C)c(O[C@@H]4C[C@@H]5C[C@@H]5C4)c(F)c3)c(CN3CCCC3)o2)C1` [Example 298, N-(4-(cis-bicyclo[3.1.0]hexan-3-yloxy)-3-fluoro-5-methylphenyl)-2-(3,3-diethylazetidin-1-yl)-5-(pyrrolidin-1-ylmethyl)oxazole-4-carboxamide] the value was 1 to 10 µM; for `CCc1oc(N2CC(CC)(CC)C2)nc1C(=O)Nc1cc(F)c(OC2CCCOC2)c(F)c1` (centres unmarked) [Example 236, 2-(3,3-diethylazetidin-1-yl)-N-(3,5-difluoro-4-((tetrahydro-2H-pyran-3-yl)oxy)phenyl)-5-ethyloxazole-4-carboxamide], 0.01 to 1 µM; for `O=C(Nc1ccc(OCC2CC3CC3C2)c(F)c1)c1nc(N2CCCC2)oc1CC(F)(F)F` (centres unmarked) [Example 190, N-(4-(bicyclo[3.1.0]hexan-3-ylmethoxy)-3-fluorophenyl)-2-(pyrrolidin-1-yl)-5-(2,2,2-trifluoroethyl)oxazole-4-carboxamide], 1 to 10 µM. In the case of `Cc1oc(N2CCC(C)C2)nc1C(=O)Nc1ccc(N2CCCCC2)c(F)c1` (centres unmarked) [Example 122, N-(3-fluoro-4-(piperidin-1-yl)phenyl)-5-methyl-2-(3-methylpyrrolidin-1-yl)oxazole-4-carboxamide], the EC50 is 10 to 100 µM.

On to `CC1(C)CN(c2nc(C(=O)Nc3cc(F)c(OC4CCCOC4)c(F)c3)c(CC(F)(F)F)o2)C1` (racemic) [Example 72, N-(3,5-difluoro-4-((tetrahydro-2H-pyran-3-yl)oxy)phenyl)-2-(3,3-dimethylazetidin-1-yl)-5-(2,2,2-trifluoroethyl)oxazole-4-carboxamide], for which the EC50 was 0.01 to 1 µM. On the same count and under the same terms, for `CC1(C)CC(Oc2ccc(NC(=O)c3nc(N4CCCC4)oc3CC(F)(F)F)cc2F)CO1` (centres unmarked) [Example 45, N-{4-[(5,5-dimethyloxolan-3-yl)oxy]-3-fluorophenyl}-2-(pyrrolidin-1-yl)-5-(2,2,2-trifluoroethyl)oxazole-4-carboxamide] the value was 1 to 10 µM; for `O=C(Nc1ccc(OC2CCCC2(F)F)c(F)c1)c1nc(N2Cc3ccccc3C2)oc1CC(F)(F)F` (centres unmarked) [Example 1, N-{4-[(2,2-difluorocyclopentyl)oxy]-3-fluorophenyl}-2-(2,3-dihydro-1H-isoindol-2-yl)-5-(2,2,2-trifluoroethyl)-1,3-oxazole-4-carboxamide], 10 to 100 µM. Same read-out and setting: for `O=C(Nc1cc(F)c(OC2CC3CC(C3)C2)c(F)c1)c1nc(N2CCCC2)oc1CC(F)(F)F` (centres unmarked) [Example 169, N-(4-(bicyclo[3.1.1]heptan-3-yloxy)-3,5-difluorophenyl)-2-(pyrrolidin-1-yl)-5-(2,2,2-trifluoroethyl)oxazole-4-carboxamide] the value was 0.01 to 1 µM. For `Cc1oc(-n2cccc2)nc1C(=O)Nc1ccc(N2CCCCC2)c(F)c1` [Example 113, N-(3-fluoro-4-(piperidin-1-yl)phenyl)-5-methyl-2-(1H-pyrrol-1-yl)oxazole-4-carboxamide], the EC50 is 1 to 10 µM. As to `CC1CN(c2nc(C(=O)Nc3cc(F)c(OC4CC5C[C@H]5C4)c(F)c3)c(CC(F)(F)F)o2)CC(C)O1` (stereo partly drawn) [Example 176, N-(4-(cis-bicyclo[3.1.0]hexan-3-yloxy)-3,5-difluorophenyl)-2-(2,6-dimethylmorpholino)-5-(2,2,2-trifluoroethyl)oxazole-4-carboxamide], the EC50 is 10 to 100 µM.
